Results reported in ChEMBL document CHEMBL1201862, “PubChem BioAssay data set” (2004).
Activity calls are given as the source filed them.

What was measured:
[1] = molecular target: T1, RNA-binding protein pos-1 (Caenorhabditis elegans, UniProt G5EF15); test: inhibitors of POS-1/mex-3 RNA binding, dose response, biochemical, fluorescence polarization (AID 1964);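 further: purified POS-1 fused to maltose binding protein made in E. coli; potency of compounds blocking POS-1 binding to fluorescent RNA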
T1 sequence (G5EF15 whole entry): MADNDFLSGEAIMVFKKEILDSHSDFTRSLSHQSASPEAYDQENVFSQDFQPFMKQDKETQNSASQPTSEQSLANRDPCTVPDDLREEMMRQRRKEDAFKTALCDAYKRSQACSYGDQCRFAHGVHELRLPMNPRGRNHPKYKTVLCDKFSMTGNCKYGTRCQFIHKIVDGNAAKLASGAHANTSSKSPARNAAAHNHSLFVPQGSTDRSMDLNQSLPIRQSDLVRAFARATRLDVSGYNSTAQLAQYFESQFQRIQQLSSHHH

[2] = molecular target: T2, Zinc finger protein mex-5 (Caenorhabditis elegans, UniProt Q9XUB2); test: MEX-5/TCR-2 RNA interaction inhibitors, dose response, biochemical, C. elegans, fluorescence polarization (AID 1960)
T2 sequence (Q9XUB2 whole entry): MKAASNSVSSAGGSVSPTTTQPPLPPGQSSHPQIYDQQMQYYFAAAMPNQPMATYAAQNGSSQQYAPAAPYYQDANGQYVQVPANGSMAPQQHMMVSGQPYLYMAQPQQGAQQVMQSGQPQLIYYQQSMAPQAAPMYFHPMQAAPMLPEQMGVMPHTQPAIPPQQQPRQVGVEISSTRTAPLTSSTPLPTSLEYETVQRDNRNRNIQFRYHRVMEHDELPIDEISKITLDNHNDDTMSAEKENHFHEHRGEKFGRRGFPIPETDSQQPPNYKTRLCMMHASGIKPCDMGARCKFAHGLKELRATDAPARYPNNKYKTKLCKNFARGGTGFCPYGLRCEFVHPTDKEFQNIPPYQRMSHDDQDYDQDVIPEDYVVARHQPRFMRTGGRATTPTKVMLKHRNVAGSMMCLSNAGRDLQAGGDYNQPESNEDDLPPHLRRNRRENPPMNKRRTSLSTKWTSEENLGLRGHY

Large T antigen = Large T antigen (Simian virus 40, UniProt P03070); format: functional, Betapolyomavirus macacae;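 further: Confirmatory-stage PubChem screen for compounds that inhibit SV40 T antigen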
HeLa = test: HeLa cell cytotoxicity, dose response, cytotoxicity control, 24 h, cherry-picked samples (AID 504726); format: functional, cell-based; conditions: Homo sapiens;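 further: potency for cytotoxicity as loss of luminescence signal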
Salmon testes DNA = test: DNA intercalators displacing acridine orange, dose response, artefact control for KSHV LANA DNA-binding inhibitor project, biochemical, fluorescence polarization, cherry-picked samples, set 2 (AID 504727); set-up: species or system Salmonidae
ORF 73 = molecular target: T3, ORF 73 (Human herpesvirus 8, UniProt O40947); test: inhibitors of C-LANA binding to LBS DNA, dose response, biochemical, fluorescence polarization, cherry-picked samples (AID 504725); set-up: species or system Human gammaherpesvirus 8;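 further: fluorescence polarization of a labeled DNA duplex reporting LANA DNA binding; potency is for inhibitors that block LANA binding to the DNA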
T3 sequence (O40947 whole entry): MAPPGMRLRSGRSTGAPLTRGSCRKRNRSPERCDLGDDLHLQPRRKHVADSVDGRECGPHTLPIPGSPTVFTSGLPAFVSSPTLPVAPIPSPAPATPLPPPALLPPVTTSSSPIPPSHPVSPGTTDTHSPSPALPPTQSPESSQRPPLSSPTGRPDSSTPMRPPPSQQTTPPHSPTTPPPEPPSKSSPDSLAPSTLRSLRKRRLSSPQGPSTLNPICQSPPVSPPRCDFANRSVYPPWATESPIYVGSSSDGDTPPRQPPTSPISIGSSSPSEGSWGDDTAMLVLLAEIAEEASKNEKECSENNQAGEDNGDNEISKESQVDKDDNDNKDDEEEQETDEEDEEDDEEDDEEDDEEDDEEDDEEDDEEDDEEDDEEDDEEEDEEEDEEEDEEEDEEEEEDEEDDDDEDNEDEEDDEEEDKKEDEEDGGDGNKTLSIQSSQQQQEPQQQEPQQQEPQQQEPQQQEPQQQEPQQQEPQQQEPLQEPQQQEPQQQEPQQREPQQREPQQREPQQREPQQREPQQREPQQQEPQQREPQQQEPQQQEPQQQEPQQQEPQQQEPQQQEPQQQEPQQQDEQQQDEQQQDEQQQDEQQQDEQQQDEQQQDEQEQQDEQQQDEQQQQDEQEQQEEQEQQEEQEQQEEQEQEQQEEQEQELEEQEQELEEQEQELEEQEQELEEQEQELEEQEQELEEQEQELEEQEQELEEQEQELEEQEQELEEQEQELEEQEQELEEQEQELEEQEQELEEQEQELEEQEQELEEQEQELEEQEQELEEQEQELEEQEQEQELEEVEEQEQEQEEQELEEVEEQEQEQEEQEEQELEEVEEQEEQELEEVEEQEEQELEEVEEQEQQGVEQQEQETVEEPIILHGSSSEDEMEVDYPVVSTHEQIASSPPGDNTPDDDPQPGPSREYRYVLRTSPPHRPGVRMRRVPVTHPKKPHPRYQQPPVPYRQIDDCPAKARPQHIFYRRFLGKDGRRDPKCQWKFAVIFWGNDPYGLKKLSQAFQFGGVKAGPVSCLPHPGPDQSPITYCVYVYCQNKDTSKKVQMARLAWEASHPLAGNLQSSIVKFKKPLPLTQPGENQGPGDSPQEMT

Keap1/Nrf2 = Keap1/Nrf2 (Homo sapiens, UniProt Q14145); test: Keap1-Nrf2 protein-protein interaction inhibitors, dose response, biochemical, fluorescence polarization, cherry-picked samples (AID 588683)
[3] = molecular target: T4, Histone-lysine N-methyltransferase NSD2 (Homo sapiens, UniProt O96028); format: biochemical
T4 sequence (O96028 whole entry): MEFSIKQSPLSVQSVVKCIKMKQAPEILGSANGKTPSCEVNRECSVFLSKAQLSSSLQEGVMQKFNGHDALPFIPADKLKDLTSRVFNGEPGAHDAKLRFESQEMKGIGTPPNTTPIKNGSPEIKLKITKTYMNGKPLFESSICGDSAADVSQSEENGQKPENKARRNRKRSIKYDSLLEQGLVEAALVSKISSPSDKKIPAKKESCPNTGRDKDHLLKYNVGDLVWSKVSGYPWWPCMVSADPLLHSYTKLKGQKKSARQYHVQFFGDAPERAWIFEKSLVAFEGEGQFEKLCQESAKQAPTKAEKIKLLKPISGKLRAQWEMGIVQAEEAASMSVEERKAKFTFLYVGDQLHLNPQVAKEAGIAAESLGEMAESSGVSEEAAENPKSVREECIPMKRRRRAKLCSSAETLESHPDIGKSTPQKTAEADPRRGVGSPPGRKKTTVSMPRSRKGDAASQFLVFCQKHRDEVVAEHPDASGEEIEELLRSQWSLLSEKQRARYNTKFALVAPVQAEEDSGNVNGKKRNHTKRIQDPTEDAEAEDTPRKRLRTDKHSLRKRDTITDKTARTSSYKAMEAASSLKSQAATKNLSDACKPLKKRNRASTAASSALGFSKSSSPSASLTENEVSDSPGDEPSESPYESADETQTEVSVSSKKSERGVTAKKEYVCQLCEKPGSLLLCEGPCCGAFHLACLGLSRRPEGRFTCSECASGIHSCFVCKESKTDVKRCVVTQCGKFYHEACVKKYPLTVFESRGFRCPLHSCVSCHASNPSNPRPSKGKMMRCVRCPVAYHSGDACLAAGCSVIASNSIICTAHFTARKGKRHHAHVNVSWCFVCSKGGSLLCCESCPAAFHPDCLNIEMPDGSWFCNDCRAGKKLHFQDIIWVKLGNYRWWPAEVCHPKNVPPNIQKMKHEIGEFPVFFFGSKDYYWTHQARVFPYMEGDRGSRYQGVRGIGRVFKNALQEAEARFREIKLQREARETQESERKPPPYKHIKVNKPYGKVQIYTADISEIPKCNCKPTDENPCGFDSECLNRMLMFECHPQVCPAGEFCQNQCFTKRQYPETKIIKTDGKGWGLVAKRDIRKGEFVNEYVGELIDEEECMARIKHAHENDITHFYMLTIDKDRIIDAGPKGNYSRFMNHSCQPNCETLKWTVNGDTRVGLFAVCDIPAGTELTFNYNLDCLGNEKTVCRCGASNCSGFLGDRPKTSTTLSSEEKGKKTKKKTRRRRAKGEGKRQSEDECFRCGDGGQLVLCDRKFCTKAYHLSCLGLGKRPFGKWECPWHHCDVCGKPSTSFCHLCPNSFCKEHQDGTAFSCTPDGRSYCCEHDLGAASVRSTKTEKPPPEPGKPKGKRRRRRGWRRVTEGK

Candida albicans [4] = test: growth inhibition of resistant C. albicans, dose response, CaCi-8 strain, fluconazole, dry powder, set 4 (AID 488950); format: functional, organism-based
Candida albicans [5] = test: fluconazole resistance reversal in C. albicans, dose response, CaCi-2 strain, Alamar Blue, dry powder, set 4 (AID 488943); format: functional, organism-based
Candida albicans [6] = test: growth inhibition of azole-resistant C. albicans, dose response, CaCi-8 strain, Alamar Blue, dry powder, set 2 (AID 488909); format: functional, organism-based
Beta-galactosidase = Beta-galactosidase (Escherichia coli, UniProt Q8VNN2); test: PubChem AID 485352; format: functional
[7] = molecular target: Type-1 angiotensin II receptor (Homo sapiens, UniProt P30556); test: AT1 receptor antagonists, dose response, selectivity assay for APJ receptor antagonist project, cell-based, uHTS hits (AID 463214); format: functional;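 further: antagonist potency against angiotensin II stimulated AT1 response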
Type-1 angiotensin II receptor, sequence (P30556 whole entry): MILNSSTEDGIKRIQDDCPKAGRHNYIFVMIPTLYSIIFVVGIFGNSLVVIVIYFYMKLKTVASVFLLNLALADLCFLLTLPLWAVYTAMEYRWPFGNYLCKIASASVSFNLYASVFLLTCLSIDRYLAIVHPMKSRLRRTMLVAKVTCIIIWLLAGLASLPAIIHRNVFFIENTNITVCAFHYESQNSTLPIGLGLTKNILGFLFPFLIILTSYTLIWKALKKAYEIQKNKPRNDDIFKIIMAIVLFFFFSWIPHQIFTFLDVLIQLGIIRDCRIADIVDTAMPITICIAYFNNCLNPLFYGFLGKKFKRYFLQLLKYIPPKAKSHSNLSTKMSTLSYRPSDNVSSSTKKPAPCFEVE

Beta-galactosidase, sequence (Q8VNN2 whole entry): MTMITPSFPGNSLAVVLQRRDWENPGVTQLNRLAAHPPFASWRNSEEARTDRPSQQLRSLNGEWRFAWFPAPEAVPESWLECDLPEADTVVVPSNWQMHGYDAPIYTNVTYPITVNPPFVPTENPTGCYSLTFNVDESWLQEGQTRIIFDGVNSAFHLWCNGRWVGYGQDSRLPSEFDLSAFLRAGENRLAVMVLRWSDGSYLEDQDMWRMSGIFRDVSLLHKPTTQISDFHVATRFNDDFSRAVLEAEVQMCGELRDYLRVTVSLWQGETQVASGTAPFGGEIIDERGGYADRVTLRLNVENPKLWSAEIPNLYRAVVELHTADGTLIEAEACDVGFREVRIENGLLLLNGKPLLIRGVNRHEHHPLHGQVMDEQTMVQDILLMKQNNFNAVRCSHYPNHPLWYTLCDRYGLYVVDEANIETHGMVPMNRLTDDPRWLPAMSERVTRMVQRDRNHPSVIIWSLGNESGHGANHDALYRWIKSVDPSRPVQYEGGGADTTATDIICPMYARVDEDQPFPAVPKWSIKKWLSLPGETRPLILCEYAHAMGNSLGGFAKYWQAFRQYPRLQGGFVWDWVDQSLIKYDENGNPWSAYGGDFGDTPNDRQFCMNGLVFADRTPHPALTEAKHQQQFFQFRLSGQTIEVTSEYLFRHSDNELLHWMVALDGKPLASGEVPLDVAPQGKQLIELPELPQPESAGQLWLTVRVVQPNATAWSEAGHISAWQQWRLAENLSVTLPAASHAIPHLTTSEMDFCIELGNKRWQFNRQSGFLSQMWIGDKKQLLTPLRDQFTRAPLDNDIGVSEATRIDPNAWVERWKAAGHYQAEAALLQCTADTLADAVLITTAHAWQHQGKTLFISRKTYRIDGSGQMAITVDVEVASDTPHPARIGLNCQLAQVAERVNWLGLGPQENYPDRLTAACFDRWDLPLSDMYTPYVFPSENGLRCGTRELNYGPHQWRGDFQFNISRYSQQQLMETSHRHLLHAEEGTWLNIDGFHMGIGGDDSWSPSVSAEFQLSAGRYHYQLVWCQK
Large T antigen, sequence (P03070 whole entry): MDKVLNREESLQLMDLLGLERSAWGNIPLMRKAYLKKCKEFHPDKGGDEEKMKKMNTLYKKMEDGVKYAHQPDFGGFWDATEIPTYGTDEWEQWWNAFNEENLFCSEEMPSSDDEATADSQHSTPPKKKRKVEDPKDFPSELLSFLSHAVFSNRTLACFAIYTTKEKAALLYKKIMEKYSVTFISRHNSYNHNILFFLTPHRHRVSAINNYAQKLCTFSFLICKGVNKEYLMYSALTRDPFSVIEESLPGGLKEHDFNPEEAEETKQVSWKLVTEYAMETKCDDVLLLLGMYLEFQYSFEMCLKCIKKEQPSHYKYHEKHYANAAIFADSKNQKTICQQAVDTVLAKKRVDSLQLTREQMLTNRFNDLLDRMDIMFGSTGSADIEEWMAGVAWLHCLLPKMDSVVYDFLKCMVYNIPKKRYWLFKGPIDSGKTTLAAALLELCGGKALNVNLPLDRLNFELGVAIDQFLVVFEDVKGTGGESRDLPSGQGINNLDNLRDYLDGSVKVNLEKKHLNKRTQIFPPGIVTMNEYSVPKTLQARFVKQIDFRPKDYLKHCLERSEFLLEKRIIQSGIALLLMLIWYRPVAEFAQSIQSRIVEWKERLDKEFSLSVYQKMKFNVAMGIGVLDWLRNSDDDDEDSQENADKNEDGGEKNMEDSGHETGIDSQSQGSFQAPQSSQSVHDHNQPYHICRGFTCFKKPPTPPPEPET
Keap1/Nrf2, sequence (Q16236 whole entry): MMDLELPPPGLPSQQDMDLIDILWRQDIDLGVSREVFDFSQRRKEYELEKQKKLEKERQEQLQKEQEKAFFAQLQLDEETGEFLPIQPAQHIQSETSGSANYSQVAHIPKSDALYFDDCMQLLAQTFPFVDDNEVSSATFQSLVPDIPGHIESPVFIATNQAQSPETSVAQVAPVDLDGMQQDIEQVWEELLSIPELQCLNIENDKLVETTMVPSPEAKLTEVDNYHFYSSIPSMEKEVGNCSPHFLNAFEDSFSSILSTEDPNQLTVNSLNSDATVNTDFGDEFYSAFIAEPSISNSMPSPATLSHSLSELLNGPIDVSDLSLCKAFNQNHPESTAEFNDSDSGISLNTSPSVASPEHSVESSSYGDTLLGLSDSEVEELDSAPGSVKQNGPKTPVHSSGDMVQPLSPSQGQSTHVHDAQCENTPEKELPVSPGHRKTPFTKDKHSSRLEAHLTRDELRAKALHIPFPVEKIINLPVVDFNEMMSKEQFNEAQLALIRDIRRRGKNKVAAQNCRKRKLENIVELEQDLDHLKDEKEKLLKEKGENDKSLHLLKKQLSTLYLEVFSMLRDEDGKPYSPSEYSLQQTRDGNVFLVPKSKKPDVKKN
Keap1/Nrf2, sequence (Q14145 whole entry): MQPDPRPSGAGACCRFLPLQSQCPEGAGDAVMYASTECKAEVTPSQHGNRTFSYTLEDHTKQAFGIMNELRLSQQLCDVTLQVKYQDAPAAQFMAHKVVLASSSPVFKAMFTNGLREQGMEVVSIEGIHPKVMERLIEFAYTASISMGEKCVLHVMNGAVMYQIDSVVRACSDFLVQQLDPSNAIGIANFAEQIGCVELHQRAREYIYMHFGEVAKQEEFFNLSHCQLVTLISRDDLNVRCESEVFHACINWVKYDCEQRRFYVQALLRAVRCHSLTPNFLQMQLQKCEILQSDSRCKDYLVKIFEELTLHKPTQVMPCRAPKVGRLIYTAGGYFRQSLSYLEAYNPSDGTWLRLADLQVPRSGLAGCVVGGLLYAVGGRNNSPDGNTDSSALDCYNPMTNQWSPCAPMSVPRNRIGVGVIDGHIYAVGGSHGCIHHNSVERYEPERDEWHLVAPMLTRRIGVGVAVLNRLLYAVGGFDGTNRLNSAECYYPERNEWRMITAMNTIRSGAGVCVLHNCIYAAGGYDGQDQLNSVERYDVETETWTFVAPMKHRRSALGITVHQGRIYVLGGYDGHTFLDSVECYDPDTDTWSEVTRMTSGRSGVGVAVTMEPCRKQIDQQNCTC

**Q.** For `O=C(O)CCNc1ccc(NCCC(=O)O)c2c1C(=O)c1ccccc1C2=O`, which EC50 [1] is on record?
**A.** The EC50 was 12.9 µM (active).

**Q.** What about the EC50 [2] of the same compound?
**A.** The EC50 was 15.3 µM (inconclusive).

**Q.** What about the IC50 (Large T antigen) of the same compound?
**A.** The IC50 was 26.7 µM (active).

**Q.** And the AC50 (HeLa)?
**A.** Its AC50 is 35 µM (active).

**Q.** And the AC50 (Salmon testes DNA)?
**A.** Its AC50 is 37.8 µM (active).

**Q.** And the AC50 (ORF 73)?
**A.** Its AC50 is 22.8 µM (active).

**Q.** And the AC50 (Keap1/Nrf2)?
**A.** Its AC50 is > 52 µM (inactive).

**Q.** And the AC50 [3]?
**A.** Its AC50 is 11.2 µM (active).

**Q.** Which results are given for `COc1ccc2c(N3CCN(C(=O)c4ccc(Cl)cc4)CC3)ccnc2c1`?
**A.** AC50 (Candida albicans [4]): 8.86 µM (active); AC50 (Candida albicans [5]): 12.4 µM (active); AC50 (Candida albicans [6]): 18.4 µM (active)

**Q.** How did the EC50 (Beta-galactosidase) turn out when `O=C(OCC(=O)c1ccc(Cl)cc1Cl)c1ccc2c(c1)C(=O)N(c1cccc3ncccc13)C2=O` was run?
**A.** Its EC50 is > 40 µM (inactive).

**Q.** What about the IC50 [7] of the same compound?
**A.** The IC50 was 39.4 µM (not active).
